These are literature values, as cited in patent publication US12377031B2, “Cosmetic compositions comprising 4-hydroxyacetophenone” (L'OREAL, priority 2020, dated 2025).

SMILES strings stand for the structures.

Turning to `CC(=O)c1ccc(O)cc1` [4-hydroxyacetophenone, 4-Hydroxyacetophenone], the “heating temperature required to solubilize into aqueous systems” value was no less than 60 °C and the solubility in water entry is listed as “limited solubility”.
